{
  "source": "patent US20020061888A1",
  "about": "“Combination therapy for the prophylaxis and treatment of hyperlipidemic conditions and disorders” (priority 2000, published 2002)",
  "system": "Male beagle dogs",
  "assay": "Serum total cholesterol in beagle dogs (serum lipid measurements)",
  "format": "in vivo",
  "conditions": "for TOTAL SERUM CHOLESTEROL / SERUM TOTAL CHOLESTEROL: n = 6; for decrease in serum total cholesterol concentration: compared to vehicle",
  "experimental": "Male beagle dogs (9-10 kg) obtained from Marshall farms were fed a normal chow diet once a day for a two hour interval and given water ad libitum. Prior to initiating treatment, the dogs were weighed and blood samples were drawn from the cephalic vein of each dog following an overnight fast to evaluate pretreatment serum total cholesterol levels at the start of the study. […] All doses were administered in gelatin capsules per os to each dog between 9:00-9:30 a.m. prior to feeding. All animals were fed between 9:30-10:00 a.m. and were allowed two hours to eat, at which time any remaining food was removed. […] Animals were dosed daily for three weeks and blood samples were taken at the end of each week after an overnight fast for comparison with pretreatment serum total cholesterol levels. Three consecutive 24 hour fecal samples were collected for each group during the last 72 hours of each week and used to measure the concentration of fecal biles acids excreted during that time period.\nBlood was collected from the cephalic vein of each dog into serum separator tubes. The blood was centrifuged at 900×g for 20 minutes at room temperature and the serum decanted. All analyses were performed on a Cobas Mira Clinical Analyzer System (Roche Diagnostic Systems, Branchburg, N.J.) using Roche Diagnostic reagents for enzymatic determinations of serum cholesterol. Commercial calibrator and quality control materials were analyzed with each run to verify assay accuracy and precision. A two-tailed, paired Students t-test was used to determine the statistical significance of changes in serum total cholesterol in treated dogs compared to pretreatment values. A one-way analysis of variance (“ANOVA”) was used to compare each pair of treatment groups to determine the statistical significance of changes in serum total cholesterol.\nBeagle dogs also were administered pravastatin to evaluate the monotherapeutic effect of pravastatin on serum total cholesterol.\nMale beagle dogs (9-10 kg) obtained from Marshall farms were fed once a day for two hours and given water ad libitum. Prior to initiating treatment, blood samples were drawn from the cephalic vein of each dog to evaluate pretreatment total serum cholesterol levels at the start of the study.\nFor the dose ranging study, the dogs were assigned to one of five groups based on mean body weights and serum total cholesterol levels. Each group received one of the following dosages: (1) vehicle (empty capsule, afternoon dosing), (2) 3.0 mg/kg/day pravastatin (afternoon dosing), (3) 10 mg/kg/day pravastatin (afternoon dosing), (4) 30 mg/kg/day pravastatin (afternoon dosing), and (5) 10 mg/kg/day pravastatin (morning dosing). One capsule containing pravastatin was administered per os to each dog between 9:00-9:30 a.m. prior to feeding for the 10 mg/kg/day morning dosing group and between 2:30-3:00 p.m. for the afternoon dosing groups. All animals were fed between 9:30-10:00 a.m. and were allowed two hours to eat, at which time any remaining food was removed. […] Animals were dosed daily for four weeks and blood samples were taken at the end of each week after an overnight fast for comparison with pretreatment serum total cholesterol levels.\nFollowing this initial four week dose-ranging study, dogs from the two groups receiving 10 mg/kg/day pravastatin (a.m. and p.m. dosing groups) were randomized into two new treatment groups based on serum total cholesterol levels to initiate the combination treatment study. […] Dosing continued in this manner for an additional four weeks (Weeks 5-8) with blood and 48-hour fecal samples collected at the end of each week for serum lipid measurements and fecal bile acid determinations, respectively.",
  "note": "Several values for one entry are separate records, joined by “and”; a condition that tells them apart may be missing. Equal values may be shown once. Marks after values point to notes of the source that are not given here.",
  "data": [
    {"smiles": "CC[C@H](C)C(=O)O[C@H]1C[C@H](O)C=C2C=C[C@H](C)[C@H](CC[C@@H](O)C[C@@H](O)CC(=O)O)[C@H]21", "note": "[pravastatin, Pravastatin]", "values": [
      {"measurement": "% change in serum total cholesterol compared to the pretreatment value of each group", "setting": "pravastatin 10.0 mg/kg/day pm dosing, Week 3", "value": "(−19) %"},
      {"measurement": "TOTAL SERUM CHOLESTEROL", "setting": "pravastatin 10.0 mg/kg/day pm dosing, Week 3, mean ± SEM", "value": "128 ± 9^3 mg/dL"},
      {"measurement": "% change in serum total cholesterol compared to the pretreatment value of each group", "setting": "pravastatin 10.0 mg/kg/day pm dosing, Week 4", "value": "(−21) %"},
      {"measurement": "TOTAL SERUM CHOLESTEROL", "setting": "pravastatin 10.0 mg/kg/day pm dosing, Week 4, mean ± SEM", "value": "126 ±8 mg/dL and 126 ± 8^3 mg/dL"},
      {"measurement": "% change in serum total cholesterol compared to the pretreatment value of each group", "setting": "pravastatin 16.0 mg/kg/day, Week 1", "value": "(−8) %"},
      {"measurement": "SERUM TOTAL CHOLESTEROL", "setting": "pravastatin 16.0 mg/kg/day, Week 1, mean ± SEM", "value": "142 ± 8", "unit": "mg/dL"},
      {"measurement": "% change in serum total cholesterol compared to the pretreatment value of each group", "setting": "pravastatin 16.0 mg/kg/day, Week 2", "value": "(−12) %"},
      {"measurement": "SERUM TOTAL CHOLESTEROL", "setting": "pravastatin 16.0 mg/kg/day, Week 2, mean ± SEM", "value": "137 ± 12^2 mg/dL"},
      {"measurement": "% change in serum total cholesterol compared to the pretreatment value of each group", "setting": "pravastatin 16.0 mg/kg/day, Week 3", "value": "(−14) %"},
      {"measurement": "decrease in serum total cholesterol concentration", "setting": "pravastatin 16.0 mg/kg/day, one week of treatment", "value": 8, "unit": "%"},
      {"measurement": "decrease in serum total cholesterol concentration", "setting": "pravastatin 16.0 mg/kg/day, three weeks of treatment", "value": 14, "unit": "%"},
      {"measurement": "% change in serum total cholesterol compared to the pretreatment value of each group", "setting": "pravastatin 30.0 mg/kg/day pm dosing, Week 1", "value": "(+2) %"},
      {"measurement": "TOTAL SERUM CHOLESTEROL", "setting": "pravastatin 30.0 mg/kg/day pm dosing, Week 1, mean ± SEM", "value": "164 ± 10", "unit": "mg/dL"},
      {"measurement": "% change in serum total cholesterol compared to the pretreatment value of each group", "setting": "pravastatin 30.0 mg/kg/day pm dosing, Week 2", "value": "(−18) %"},
      {"measurement": "TOTAL SERUM CHOLESTEROL", "setting": "pravastatin 30.0 mg/kg/day pm dosing, Week 2, mean ± SEM", "value": "132 ± 8^3 mg/dL"},
      {"measurement": "% change in serum total cholesterol compared to the pretreatment value of each group", "setting": "pravastatin 30.0 mg/kg/day pm dosing, Week 3", "value": "(−18) %"},
      {"measurement": "TOTAL SERUM CHOLESTEROL", "setting": "pravastatin 30.0 mg/kg/day pm dosing, Week 3, mean ± SEM", "value": "132 ± 11^3 mg/dL"},
      {"measurement": "% change in serum total cholesterol compared to the pretreatment value of each group", "setting": "pravastatin 30.0 mg/kg/day pm dosing, Week 4", "value": "(−20) %"},
      {"measurement": "TOTAL SERUM CHOLESTEROL", "setting": "pravastatin 30.0 mg/kg/day pm dosing, Week 4, mean ± SEM", "value": "128 ± 7^3 mg/dL"},
      {"measurement": "lowering of serum total cholesterol", "setting": "pravastatin 30 mg/kg/day, four week dose ranging study", "value": 20, "unit": "%"},
      {"measurement": "total decrease in serum total cholesterol compared to the pretreatment value", "setting": "pravastatin monotherapy 10 mg/kg/day, Week 8", "value": 30, "unit": "%"},
      {"measurement": "% change from Week 0 in total serum cholesterol", "setting": "pravastatin monotherapy 10 mg/kg/day, dosed Weeks 1-11, Week 1", "value": "(−2) %"},
      {"measurement": "TOTAL SERUM CHOLESTEROL", "setting": "pravastatin monotherapy 10 mg/kg/day, dosed Weeks 1-11, Week 1, mean ± SEM", "value": "157 ± 10", "unit": "mg/dL"},
      {"measurement": "% change from Week 0 in total serum cholesterol", "setting": "pravastatin monotherapy 10 mg/kg/day, dosed Weeks 1-11, Week 2", "value": "(−16) %"},
      {"measurement": "TOTAL SERUM CHOLESTEROL", "setting": "pravastatin monotherapy 10 mg/kg/day, dosed Weeks 1-11, Week 2, mean ± SEM", "value": "135 ± 17", "unit": "mg/dL"},
      {"measurement": "% change from Week 0 in total serum cholesterol", "setting": "pravastatin monotherapy 10 mg/kg/day, dosed Weeks 1-11, Week 3", "value": "(−18) %"},
      {"measurement": "TOTAL SERUM CHOLESTEROL", "setting": "pravastatin monotherapy 10 mg/kg/day, dosed Weeks 1-11, Week 3, mean ± SEM", "value": "132 ± 13", "unit": "mg/dL"},
      {"measurement": "% change from Week 0 in total serum cholesterol", "setting": "pravastatin monotherapy 10 mg/kg/day, dosed Weeks 1-11, Week 4", "value": "(−19) %"},
      {"measurement": "TOTAL SERUM CHOLESTEROL", "setting": "pravastatin monotherapy 10 mg/kg/day, dosed Weeks 1-11, Week 4, mean ± SEM", "value": "130 ± 9 [a] mg/dL"},
      {"measurement": "% change from Week 0 in total serum cholesterol", "setting": "pravastatin monotherapy 10 mg/kg/day, dosed Weeks 1-11, Week 5", "value": "(−21) %"},
      {"measurement": "TOTAL SERUM CHOLESTEROL", "setting": "pravastatin monotherapy 10 mg/kg/day, dosed Weeks 1-11, Week 5, mean ± SEM", "value": "127 ± 9 [a] mg/dL"},
      {"measurement": "% change from Week 0 in total serum cholesterol", "setting": "pravastatin monotherapy 10 mg/kg/day, dosed Weeks 1-11, Week 6", "value": "(−27) %"},
      {"measurement": "TOTAL SERUM CHOLESTEROL", "setting": "pravastatin monotherapy 10 mg/kg/day, dosed Weeks 1-11, Week 6, mean ± SEM", "value": "117 ± 10 [a] mg/dL"},
      {"measurement": "% change from Week 0 in total serum cholesterol", "setting": "pravastatin monotherapy 10 mg/kg/day, dosed Weeks 1-11, Week 7", "value": "(−25) %"},
      {"measurement": "TOTAL SERUM CHOLESTEROL", "setting": "pravastatin monotherapy 10 mg/kg/day, dosed Weeks 1-11, Week 7, mean ± SEM", "value": "121 ± 7 [a] mg/dL"},
      {"measurement": "% change from Week 0 in total serum cholesterol", "setting": "pravastatin monotherapy 10 mg/kg/day, dosed Weeks 1-11, Week 8", "value": "(−30) %"},
      {"measurement": "TOTAL SERUM CHOLESTEROL", "setting": "pravastatin monotherapy 10 mg/kg/day, dosed Weeks 1-11, Week 8, mean ± SEM", "value": "113 ±9 mg/dL and 113 ± 9 [a] mg/dL"},
      {"measurement": "% change from Week 0 in total serum cholesterol", "setting": "pravastatin monotherapy 10 mg/kg/day, dosed Weeks 1-11, Week 9", "value": "(−26) %"},
      {"measurement": "TOTAL SERUM CHOLESTEROL", "setting": "pravastatin monotherapy 10 mg/kg/day, dosed Weeks 1-11, Week 9, mean ± SEM", "value": "119 ± 8 [a] mg/dL"},
      {"measurement": "% change from Week 0 in total serum cholesterol", "setting": "pravastatin monotherapy 10 mg/kg/day, dosed Weeks 1-11, Week 10", "value": "(−27) %"},
      {"measurement": "TOTAL SERUM CHOLESTEROL", "setting": "pravastatin monotherapy 10 mg/kg/day, dosed Weeks 1-11, Week 10, mean ± SEM", "value": "118 ± 9 [a] mg/dL"},
      {"measurement": "% change from Week 0 in total serum cholesterol", "setting": "pravastatin monotherapy 10 mg/kg/day, dosed Weeks 1-11, Week 11", "value": "(−27) %"},
      {"measurement": "TOTAL SERUM CHOLESTEROL", "setting": "pravastatin monotherapy 10 mg/kg/day, dosed Weeks 1-11, Week 11, mean ± SEM", "value": "118 ± 8 [a] mg/dL"},
      {"measurement": "% change from Week 0 in total serum cholesterol", "setting": "pravastatin monotherapy group, dosing terminated after Week 11, Week 12", "value": "(−19) %"},
      {"measurement": "TOTAL SERUM CHOLESTEROL", "setting": "pravastatin monotherapy group, dosing terminated after Week 11, Week 12, mean ± SEM", "value": "131 ± 9 [a] mg/dL"},
      {"measurement": "% change from Week 0 in total serum cholesterol", "setting": "pravastatin monotherapy group, dosing terminated after Week 11, Week 13", "value": "(−9) %"},
      {"measurement": "TOTAL SERUM CHOLESTEROL", "setting": "pravastatin monotherapy group, dosing terminated after Week 11, Week 13, mean ± SEM", "value": "147 ± 9", "unit": "mg/dL"},
      {"measurement": "% change from Week 0 in total serum cholesterol", "setting": "pravastatin monotherapy group, dosing terminated after Week 11, Week 14", "value": "(−11) %"},
      {"measurement": "TOTAL SERUM CHOLESTEROL", "setting": "pravastatin monotherapy group, dosing terminated after Week 11, Week 14, mean ± SEM", "value": "144 ± 12", "unit": "mg/dL"}
    ]}
  ]
}
